Source: patent US8173689B2 (Novartis AG, priority 2006, dated 2012)
Where two headings read alike, the source gives them in different places.

Key:
[1] = target: T1, cytoplasmic domain of the human CSF-1R (Homo sapiens, UniProt P07333); test: In vitro kinase assay for colony stimulating factor-1 receptor (AlphaScreen); type: biochemical; settings: tested at about 1 μM, read-out: CSF-1R percent inhibition
T1 construct: Recombinant protein corresponding to the cytoplasmic domain of the human CSF-1R; purchased Invitrogen Corporation, Carlsbad, Calif; PV3249
T1 sequence (P07333 539-972 limits assumed): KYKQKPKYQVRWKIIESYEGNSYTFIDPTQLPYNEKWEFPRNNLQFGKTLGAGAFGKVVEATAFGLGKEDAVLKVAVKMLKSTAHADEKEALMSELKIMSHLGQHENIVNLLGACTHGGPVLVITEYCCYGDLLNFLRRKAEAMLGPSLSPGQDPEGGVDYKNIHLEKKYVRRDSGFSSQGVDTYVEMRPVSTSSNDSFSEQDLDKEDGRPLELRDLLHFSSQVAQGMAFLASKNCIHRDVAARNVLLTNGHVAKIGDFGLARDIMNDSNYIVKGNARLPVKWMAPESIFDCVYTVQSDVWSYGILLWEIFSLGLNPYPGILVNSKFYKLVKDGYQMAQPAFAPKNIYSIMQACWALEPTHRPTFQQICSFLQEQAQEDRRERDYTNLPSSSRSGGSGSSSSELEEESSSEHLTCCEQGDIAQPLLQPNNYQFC
Experimental: The kinase activity of various protein tyrosine kinases can be measured by providing ATP and a suitable peptide or protein tyrosine-containing substrate, and assaying the transfer of phosphate moiety to the tyrosine residue. Recombinant protein corresponding to the cytoplasmic domain of the human CSF-1R was purchased from Invitrogen Corporation, Carlsbad, Calif. U.S.A. (#PV3249). For each assay, test compounds were serially diluted, starting at 25 μM with 3 fold dilutions, in DMSO in 384 well plates then mixed with an appropriate kinase reaction buffer consisting of 50 mM Hepes, 5 mM MgCl2, 10 mM MnCl2, 0.1% BSA, pH 7.5, 1.0 mM dithiothreitol, 0.01% Tween 80 plus 1 μM ATP. […] Added to the stopped reaction mix was 30 μL of PT66 Alphascreen beads (Perkin Elmer, Boston, Mass., U.S.A.). The reaction was incubated overnight and read on the Envision (Perkin Elmer). Phosphorylated peptide product was measured with the AlphaScreen system (Perkin Elmer) using acceptor beads coated with anti-phosphotyrosine antibody PT66 and donor beads coated with streptavidin that emit a fluorescent signal at the 520-620 nm emission wave length if in close proximity.
CSF-1R kinase was added at final concentration of 4 nM.

kinase domain of PDGFRβ = target: T2, kinase domain of PDGFRβ (Homo sapiens, UniProt P09619); test: Inhibition of PDGFRb kinase signaling in an in vitro biochemical assay (alphascreen); settings: tested at about 1 μM, read-out: PDGFRβ percent inhibition
T2 construct: The kinase domain of PDGFRβ was assayed in 50 mM Hepes; purchased Invitrogen P3082
Experimental: (§1) The IC50 values for the inhibition of RTKs were determined in the alphascreen format measuring the inhibition by compound of phosphate transfer to a substrate by the respective enzyme. Briefly, the respective RTK domain purchased as human recombinant protein (cKIT Upstate #14-559, PDGFRb Invitrogen #P3082) were incubated with serial dilutions of compound in the presence of substrate and ATP concentrations within 3 times the Km of the enzyme.
(§2) Alphascreen PY20 beads were added to the stopped cKIT reactions and PY20 Ab/Protein A Alphascreen beads were added to the PDGFRβ stopped reactions. Both reactions were incubated overnight and read on the Alphascreen reader.

kinase domain of cKIT = target: T3, kinase domain of cKIT (Homo sapiens, UniProt P10721); test: Inhibition of cKIT kinase signaling in an in vitro biochemical assay (alphascreen); settings: tested at about 1 μM, read-out: cKit percent inhibition
T3 construct: The kinase domain of cKIT was assayed in 50 mM Hepes; purchased Upstate 14-559
Experimental: as §1, §2

T2 sequence (P09619 600-962 limits assumed): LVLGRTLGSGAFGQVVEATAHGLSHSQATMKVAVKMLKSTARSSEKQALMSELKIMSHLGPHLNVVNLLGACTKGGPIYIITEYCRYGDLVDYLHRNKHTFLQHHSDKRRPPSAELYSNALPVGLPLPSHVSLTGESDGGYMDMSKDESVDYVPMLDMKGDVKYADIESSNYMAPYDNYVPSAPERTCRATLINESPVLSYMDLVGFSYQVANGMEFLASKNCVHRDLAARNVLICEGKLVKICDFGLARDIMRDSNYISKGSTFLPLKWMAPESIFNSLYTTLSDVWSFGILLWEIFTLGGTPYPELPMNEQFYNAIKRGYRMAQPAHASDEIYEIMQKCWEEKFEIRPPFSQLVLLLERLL
T3 sequence (P10721 589-937 limits assumed): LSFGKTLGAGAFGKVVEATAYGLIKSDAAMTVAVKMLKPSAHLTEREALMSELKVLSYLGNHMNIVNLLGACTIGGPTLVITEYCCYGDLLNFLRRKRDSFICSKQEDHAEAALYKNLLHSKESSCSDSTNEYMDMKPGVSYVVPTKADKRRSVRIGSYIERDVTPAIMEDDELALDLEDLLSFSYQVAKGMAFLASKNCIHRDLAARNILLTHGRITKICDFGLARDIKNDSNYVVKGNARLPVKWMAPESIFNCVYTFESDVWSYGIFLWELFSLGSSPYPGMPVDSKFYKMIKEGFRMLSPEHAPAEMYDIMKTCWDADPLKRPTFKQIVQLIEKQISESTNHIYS

| inhibition at 1 µM [1] | inhibition at 1 µM (kinase domain of PDGFRβ) | inhibition at 1 µM (kinase domain of cKIT) | inhibition at 1 µM ([1]; compounds of Table 3) | inhibition at 1 µM (kinase domain of PDGFRβ; compounds of Table 3) | inhibition at 1 µM (kinase domain of cKIT; compounds of Table 3) | SMILES |
| --- | --- | --- | --- | --- | --- | --- |
| 45% | 3% | 6% | – | – | – | CNC(=O)c1cc(Oc2ccc3nc(NCCN4CCCC4)oc3c2)ccn1 [Compound 63, 4-[2-(2-Pyrrolidin-1-yl-ethylamino)-benzooxazol-6-yloxy]-pyridin-2-carboxylic acid methylamide] |
| 77% | 21% | 0% | – | – | – | CNC(=O)c1cc(Oc2ccc3nc(NCCN4CCCCC4)oc3c2)ccn1 [Compound 64, 4-[2-(2-Piperidin-1-yl-ethyl-amino)-benzooxazol-6-yloxy]-pyridine-2-carboxylic acid methylamide] |
| 87% | 0% | 7% | – | – | – | OCc1cc(Oc2ccc3nc(NCC4CCCCC4)oc3c2)ccn1 [Compound 80, {4-[2-(Cyclohexylmethyl-amino)-benzooxazol-6-yloxy]-pyridin-2-yl}-methanol] |
| 54% | 0% | 16% | – | – | – | c1cc(Oc2ccc3nc(NCC4CCCCC4)oc3c2)cc(-c2nnco2)n1 [Compound 81, Cyclohexylmethyl-[6-(2-[1,3,4]oxadiazol-2-yl-pyridin-4-yloxy)-benzooxazol-2-yl]-amine] |
| – | – | – | 63% | 32% | 15% | CNC(=O)c1cc(Oc2ccc3nc(N[C@@H]4CCC(=O)NC4)sc3c2)ccn1 [Compound 86] |
| 26% | 0% | 7% | – | – | – | CNC(=O)c1cc(Oc2ccc3nc(NC(C)C)oc3c2)ccn1 [Compound 98, 4-(2-Isopropylamino-benzo-oxazol-6-yloxy)-pyridine-2-carboxylic acid methylamide] |
| – | – | – | 86% | 0% | 0% | CNC(=O)c1cc(Oc2ccc3nc(NC[C@@H](C)O)sc3c2)ccn1 [Compound 99] |
| 99% | 9% | 10% | – | – | – | CNC(=O)c1cc(Oc2ccc3nc(NC(C)(C)C)oc3c2)ccn1 [Compound 100, 4-(2-tert-Butylamino-benzo-oxazol-6-yloxy)-pyridine-2-carboxylic acid methylamide] |
| 83% | 0% | 14% | – | – | – | CNC(=O)c1cc(Oc2ccc3nc(NCC4CCCO4)oc3c2)ccn1 (stereo not drawn) [Compound 102, 4-{2-[(Tetrahydro-furan-2-ylmethyl)-amino]-benzooxazol-6-yloxy}-pyridine-2-carboxylic acid methylamide] |
| 99% | 0% | 2% | – | – | – | CNC(=O)c1cc(Oc2ccc3nc(N(C)Cc4ccccc4)oc3c2)ccn1 [Compound 106, 4-[2-(Benzyl-methyl-amino)-benzooxazol-6-yloxy]-pyridine-2-carboxylic acid methylamide] |
| 67% | 0% | 8% | – | – | – | CNC(=O)c1cc(Oc2ccc3nc(NC4CCN(c5ccccc5)CC4)oc3c2)ccn1 [Compound 107, 4-[2-(1-Phenyl-piperidin-4-ylamino)-benzooxazol-6-yloxy]-pyridine-2-carboxylic acid methylamide] |
| 85% | 8% | 16% | – | – | – | CNC(=O)c1cc(Oc2ccc3nc(NC(=O)c4cccc5c4OCCO5)oc3c2)ccn1 [Compound 110, 4-{2-[(2,3-Dihydro-benzo-[1,4]dioxine-5-carbonyl)-amino]-benzooxazol-6-yloxy}-pyridine-2-carboxylic acid methylamide] |
| 28% | 5% | 0% | – | – | – | CNC(=O)c1cc(Oc2ccc3nc(NCC4(C(=O)NC)CCCCC4)oc3c2)ccn1 [Compound 112, 4-{2-[(1-Methylcarbamoyl-cyclohexylmethyl)-amino]-benzooxazol-6-yloxy}-pyridine-2-carboxylic acid methylamide] |
| – | – | – | 62% | 0% | 1% | CNC(=O)c1cc(Oc2ccc3nc(NC(C)C(O)c4cc(OC)ccc4OC)sc3c2)ccn1 (stereo not drawn) [Compound 123] |

The next lines start with the compound.

| SMILES | inhibition at 1 µM [1] | inhibition at 1 µM (kinase domain of PDGFRβ) | inhibition at 1 µM (kinase domain of cKIT) | inhibition at 1 µM ([1]; compounds of Table 3) | inhibition at 1 µM (kinase domain of PDGFRβ; compounds of Table 3) | inhibition at 1 µM (kinase domain of cKIT; compounds of Table 3) |
| --- | --- | --- | --- | --- | --- | --- |
| CNC(=O)c1cc(Oc2ccc3nc(NCc4cccnc4)oc3c2)ccn1 [Compound 59, 4-{2-[(Pyridin-3-ylmethyl)-amino]-benzooxazol-6-yloxy}-pyridine-2-carboxylic acid methylamide] | 97% | 0% | 21% | – | – | – |
| O=C(O)c1cc(Oc2ccc3nc(NCC4CCCCC4)oc3c2)ccn1 [Compound 60, 4-[2-(Cyclohexylmethyl-amino)-benzooxazol-6-yloxy]-pyridine-2-carboxylic acid] | 92% | 2% | 6% | – | – | – |
| CNC(=O)c1cc(Oc2ccc3nc(N[C@@H](C(=O)NC)C4CCCCC4)oc3c2)ccn1 [Compound 62, 4-{2-[((R)-Cyclohexyl-methylcarbamoyl-methyl)-amino]-benzooxazol-6-yloxy}-pyridine-2-carboxylic acid methylamide] | 19% | 5% | 7% | – | – | – |
| CNC(=O)c1cc(Oc2ccc3nc(NCc4c(F)cccc4Cl)oc3c2)ccn1 [Compound 78, 4-[2-(2-Chloro-6-fluoro-benzylamino)-benzooxazol-6-yloxy]-pyridine-2-carboxylic acid methylamide] | 87% | 0% | 9% | – | – | – |
| N#Cc1cc(Oc2ccc3nc(NCC4CCCCC4)oc3c2)ccn1 [Compound 82, 4-[2-(Cyclohexylmethyl-amino)-benzooxazol-6-yloxy]-pyridine-2-carbonitrile] | 46% | 0% | 9% | – | – | – |
| CNC(=O)c1cc(Oc2ccc3nc(Nc4ccc5c(c4)OCO5)oc3c2)ccn1 [Compound 95, 4-[2-(Benzo[1,3]dioxol-5-yl-amino)-benzooxazol-6-yloxy]-pyridine-2-carboxylic acid methylamide] | 98% | 8% | 40% | – | – | – |
| CNC(=O)c1cc(Oc2ccc3nc(NCC(C)C)oc3c2)ccn1 [Compound 99, 4-(2-Isobutylamino-benzooxazol-6-yloxy)-pyridine-2-carboxylic acid methylamide] | 63% | 9% | 12% | – | – | – |
| CNC(=O)c1cc(Oc2ccc3nc(NC[C@H](C)O)sc3c2)ccn1 [Compound 100] | – | – | – | 81% | 6% | 0% |
| CNC(=O)c1cc(Oc2ccc3nc(NC4CCN(Cc5ccccc5)CC4)oc3c2)ccn1 [Compound 103, 4-[2-(1-Benzyl-piperidin-4-ylamino)-benzooxazol-6-yloxy]-pyridine-2-carboxylic acid methylamide] | 60% | 14% | 8% | – | – | – |
| NCc1cc(Oc2ccc3nc(NCC4CCCCC4)oc3c2)ccn1 [Compound 111, [6-(2-Aminomethyl-pyridin-4-yloxy)-benzooxazol-2-yl]-cyclohexylmethyl-amine] | 25% | 2% | 15% | – | – | – |
| CNC(=O)c1cc(Oc2ccc3nc(NCC4CN(Cc5ccccc5)CCO4)oc3c2)ccn1 (stereo not drawn) [Compound 120, 4-{2-[(4-Benzyl-morpholin-2-ylmethyl)-amino]-benzooxazol-6-yloxy}-pyridine-2-carboxylic acid methylamide] | 75% | 0% | 5% | – | – | – |
